Laboratory results: US20080241919A1, “Defined media for pluripotent stem cell culture” (The Burnham Institute of Medical Research, priority 2003, published 2008)

Experiments:
Assay type in all cases: cell-based, human
[1] = test system: acetylated histone H3 and H4, Myc, Tip60 HAT, p300 HAT; assay: Chromatin state immunofluorescence (acetylated H3/H4, Myc, Tip60, p300) in hESCs; conditions: named factor omitted from the media
Text: (c) Presence of both bFGF and insulin is essential for maintenance of an acetylated transcriptionally active chromatin state in undifferentiated hESCs. When either bFGF or insulin is omitted from the media, the differentiated hESC colonies express the differentiation-associated cell surface marker SSEA-1 [B, C] […] (green), Myc [E, F] (red), and histone acetyltransferase (HAT) Tip60 [I, K] (green) and p300 [J, K] […] All cells are indicated by DAPI staining of their nuclei (blue).
(§1) To discover the minimal essential conditions needed to support the long-term growth of undifferentiated hESCs, morphological analysis was used to assess the developmental stage of hESCs at different times. For these analyses hESCs were grown in a 6- or 12-well plate to maturation (day 6 or 7 after seeding) before being fixed and visualized under a phase contrast microscope. Cellular immunofluorescence was also employed to assess the state of differentiation of hESCs. […] The state of differentiation of hESC was further assessed by generating (via lentiviral-mediated transduction) hESCs carrying a reporter gene (enhanced green fluorescence protein (EGFP)) under control of the Oct-4 promoter. Using these transfected hESCs (carrying Oct-4 driven EGFP), the undifferentiated state of hESCs can be visualized by green fluorescence (indicating Oct-4 expression). […]

p38 MAPK = p38 MAPK phosphorylation in hESCs (Western blot, immunocytochemistry)
Text: (e) bFGF is essential for maintaining hESCs in a healthy undifferentiated state, in part through MAPK signaling […]. In media lacking bFGF, hESC colonies maintained on Matrigel-coated plates have a completely differentiated morphology upon the first passage [A]. To examine the signaling pathways that might be mediated by bFGF, the phosphorylation level of p38 MAPK in undifferentiated (in the presence of bFGF [+bFGF]) and differentiated (in the absence of bFGF [−bFGF]) hESCs was examined. […] White arrows delineate the edge of an hESC colony.
To help understand the molecular mechanisms underlying bFGF's role in maintaining undifferentiated growth of hESCs, the mitogen-activated protein kinase (MAPK) signaling pathway was examined.

[2] = test system: Oct-4 expression in hESCs; assay: hESCs carrying Oct-4 promoter-driven EGFP reporter, with or without bFGF
Text: (d) bFGF is critical for sustaining undifferentiated growth of hESCs carrying an Oct-4-driven reporter gene. hESCs carrying a reporter gene (enhanced green fluorescence protein [EGFP]) that is under control of the Oct-4 promoter was generated via lentiviral-mediated transduction.
FIG. 6: (a) Growth of hESCs carrying an Oct-4-driven reporter gene in the presence or absence of bFGF. hESCs carrying a reporter gene (enhanced green fluorescence protein [EGFP]) that is under control of the Oct-4 promoter was generated via lentiviral-mediated transduction. Transfected hESCs were cultivated under the feeder-free conditions in the defined media with bFGF (20 ng/ml) or without bFGF for 4 days. […] The cells were further dissociated and analyzed on a BD FacsSort instrument after staining with 7-aminoactinomycin D (7-AAD) to eliminate the dead cells [E]. With FACS-sorting, significant increases (200%) of Oct4-EGFP negative cells were observed after withdrawal bFGF for 4 days. (Note the actual percentage of Oct4-EGFP negative cells in the absence of bFGF should be even higher, because it takes around 2 days for the green fluorescence to be completely quenched after Oct-4 expression has been turned off.) (b) bFGF concentration in MEF-CM. Growth-arrested MEFs were obtained from Specialty Media (Phillipsburg, N.J.). […] 50 μl of concentrates was loaded onto a SDS/PAGE gel and analyzed by Western blot. […]
as §1, with “times.” for “times. For these analyses hESCs were grown in a 6- or 12-well plate to maturation (day 6 or 7 after seeding) before being fixed and visualized under a phase contrast microscope. Cellular immunofluorescence was also employed to assess the state of differentiation of hESCs.”

bFGF: basic fibroblast growth factor, growth factor added to the defined hESC media
immunoreactivity to acetylated H3 and H4, Myc, Tip60 HAT, nuclear focal localization of p300 HAT [1]: undetectable or weak immunoreactivity
large differentiated cells displaying high levels of p38 phosphorylation (p38 MAPK; absence of bFGF): about 5%
p38 MAPK form in undifferentiated hESCs by immunocytochemistry (p38 MAPK; defined media containing 20 ng/ml bFGF): unphosphorylated inactive form of p38 MAPK was present robustly
phosphorylation levels of p38 MAPK by Western blot (p38 MAPK; increased bFGF concentrations): no changes
cells inside colonies with differentiated morphology that ceased Oct-4 expression ([2]; absence of bFGF, first passage (day 7 after seeding)): more than 70%
morphology and Oct-4-driven EGFP fluorescence of hESC colonies ([2]; defined media containing 20 ng/ml bFGF, feeder-free): undifferentiated morphology and strong green fluorescence
increase of Oct4-EGFP negative cells by FACS ([2]; withdrawal of bFGF for 4 days): 200%
